Laboratory results from US20110251126A1, “INTESTINAL TREATMENT” (priority 2008, published 2011).
Ends that are not written are not given here.

Assays:
small intestinal crypts = test: Surviving small intestinal crypts after 13Gy total body X-irradiation; assay type: in vivo, mice; details: analyzed four days following irradiation
Procedure: Twenty four 8-10 week old C57/B6 male mice randomized into three groups of each eight animals. Animals received PP[2-36] (0.1 mg/kg) s.c. twice daily for three days either prior or post radiation. Controls received vehicle both prior and post radiation.
Group 1 (pretreatment): PP[2-36] (0.1 mg/kg) twice daily on day −3, −2, −1; radiation on day 0; vehicle on day 0, +1, +2, +3. Group 2 (post treatment): Vehicle twice daily on day −3, −2, −1; radiation on day 0; PP[2-36] (0.1 mg/kg twice daily on day 0, +1, +2, +3. Group 3 (control): Vehicle twice daily on day −3, −2, −1; radiation on day 0; vehicle twice daily on day 0, +1, +2, +3. All animals were irradiated (day 0) to a single dose of 13Gy total body X-irradiation. Irradiation was performed using a Pantak HF320 X-ray set (Agfa NDT Ltd, Reading, UK). The machine was operated at 300 kV, 10 mA. The X-ray tube was fitted with additional filtration to give a radiation quality of 2.3 mm Cu half-value layer (HVL). Mice were restrained in a jig, positioned at a distance of 700 mm from the focus of the X-ray tube. Irradiation was delivered at a dose rate of 75.5 cGy/min. […] For each animal ten intestinal circumferences were analyzed—a circumference is equivalent to a given length of intestine and therefore a convenient baseline unit of length. The number of surviving crypts per circumference was scored and the average per group determined. […]

[1] = system: small intestinal crypt cells; test: Intestinal crypt cell proliferation (BrdU incorporation, cell positional scoring); assay type: in vivo, mice; details: 12 hours after dose
Procedure: 3 Groups of 8 male 8-10 weeks old C57/B6 mice were treated with group 1: Vehicle, group 2:PP(2-36) 0,1 mg/kg single injection s.c., group 3: PP(2-36) 1,0 mg/kg single injection s.c. Animals were euthanized 12 hours following the single injection of either dose. Vehicle was used as control. Prior to euthanasia all animals were given BrdU (Bromodeoxyuridine) i.p.—a marker for cell proliferation. The small intestine and colon were then removed and fixed in Carnoy's solution. From the Carnoy's fixed small intestinal material, paraffin blocks were generated and sectioned. Slides were immunolabelled to reveal the BrdU incorporation and analyzed on a cell positional basis (i.e. location of the individual cell in the hierarchy of cells in the crypt) to identify any induced proliferative changes (BrdU incorporation and mitotic counts). Fifty half crypts per mouse were scored on a cell positional basis, generating 400 frequency scores per group of 8 animals from which the means were generated and effects analyzed.

With “hPP2-36 (PLEPVYPGDNATPEQMAQYAADLRRYINMLTRPRY-NH2; listed as Homo sapiens) [PP[2-36]]” the “increase in number of surviving crypts compared to vehicle control” value (small intestinal crypts; post treatment 0.1 mg/kg s.c. twice daily for four days post irradiation, non-significant p>0.05) was 47%, the “increase in number of surviving intestine crypts compared to vehicle control” value (small intestinal crypts; pretreatment 0.1 mg/kg s.c. twice daily for three days prior irradiation, p<0.05) was “two” and the “level of proliferation in the small intestinal crypts” value ([1]; 0,1 mg/kg single injection s.c.) was “increased proliferation at cell positions 6-13”. For the same substance, the “level of proliferation in the small intestinal crypts” value ([1]; 1 mg/kg single injection s.c.) was “stimulation was evident throughout the proliferative zone”.
